Measurements published in PubChem BioAssay AID248 (DTP/NCI, 2004).
“And” between values parts separate entries of the source, which are not always exact repeats. Identical values can stand only once. Toxic doses and inconclusive results are not listed. Rule as the data show it: active = T/C of 150% or more; inactive = T/C below 125%.

Test system: L1210 leukemia ip in BDF1 mice, survival T/C
Test: NCI In Vivo Anticancer Drug Screen. Data for tumor model L1210 Leukemia (intraperitoneal) in B6D2F1 (BDF1) mice
Conditions: endpoint: mean survival time, higher = longer survival
Procedure, shortened: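 Read-out is survival time, reported as the treated-group measurement over the vehicle-control measurement.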

[1] = dose: 100.0 mg/kg/injection, schedule: Q01DX009 (ip), vehicle: Klucel (hydroxypropylcellulose) (HPC)
[2] = dose: 100.0 mg/kg/injection, schedule: Q04DX003 (ip), vehicle: Klucel (hydroxypropylcellulose) (HPC)
[3] = dose: 200.0 mg/kg/injection, schedule: Q01DX009 (ip), vehicle: Klucel (hydroxypropylcellulose) (HPC)
[4] = dose: 200.0 mg/kg/injection, schedule: Q04DX003 (ip), vehicle: Klucel (hydroxypropylcellulose) (HPC)
[5] = dose: 400.0 mg/kg/injection, schedule: Q04DX003 (ip), vehicle: Klucel (hydroxypropylcellulose) (HPC)
[6] = dose: 100.0 mg/kg/injection, schedule: Q01DX001 (ip), vehicle: saline
[7] = dose: 400.0 mg/kg/injection, schedule: Q01DX009 (ip), vehicle: Klucel (hydroxypropylcellulose) (HPC)
[8] = dose: 100.0 mg/kg/injection, schedule: Q04DX003 (ip), vehicle: saline with Tween-80
[9] = dose: 200.0 mg/kg/injection, schedule: Q04DX003 (ip), vehicle: saline with Tween-80
[10] = dose: 400.0 mg/kg/injection, schedule: Q04DX003 (ip), vehicle: saline with Tween-80
[11] = dose: 50.0 mg/kg/injection, schedule: Q01DX001 (ip), vehicle: saline
[12] = dose: 200.0 mg/kg/injection, schedule: Q01DX001 (ip), vehicle: saline
[13] = dose: 400.0 mg/kg/injection, schedule: Q01DX001 (ip), vehicle: saline

Measured: T/C

Cc1ccc(N(O)C(=O)Nc2ccccc2)cc1
inactive: dose: 50.0 mg/kg/injection, schedule: Q01DX015 (ip), vehicle: methylcellulose (MC) 102 % of control | dose: 100.0 mg/kg/injection, schedule: Q01DX015 (ip), vehicle: methylcellulose (MC) 91 % of control | dose: 200.0 mg/kg/injection, schedule: Q01DX015 (ip), vehicle: methylcellulose (MC) 96 % of control

NC(CS)(CS)C(=O)O
inactive: dose: 15.0 mg/kg/injection, schedule: Q01DX015 (ip), vehicle: carboxymethylcellulose (CMC) 107 % of control | dose: 30.0 mg/kg/injection, schedule: Q01DX015 (ip), vehicle: carboxymethylcellulose (CMC) 113 % of control | dose: 60.0 mg/kg/injection, schedule: Q01DX015 (ip), vehicle: carboxymethylcellulose (CMC) 120 % of control

OC1COC(c2ccco2)OC1 (stereo unspecified) (tested in a mixture with another compound)
inactive: [1] 94 % of control | [2] 102 % of control | [3] 105 % of control | [4] 101 % of control | [5] 102 % of control

CSc1nn(C)c[n+]1-c1ccccc1
inactive: [6] 105 % of control

CC[C@H](/C=C/[C@@H](C)[C@H]1CC[C@H]2[C@@H]3CC=C4C[C@@H](OC(=O)/C=C\C(=O)O)CC[C@]4(C)[C@H]3CC[C@]12C)C(C)C
inactive: dose: 12.5 mg/kg/injection, schedule: Q01DX009 (ip), vehicle: water 96 % of control | dose: 25.0 mg/kg/injection, schedule: Q01DX009 (ip), vehicle: water 86 % of control | dose: 25.0 mg/kg/injection, schedule: Q04DX003 (ip), vehicle: other 105 % of control | dose: 50.0 mg/kg/injection, schedule: Q04DX003 (ip), vehicle: other 92 % of control

c1ccc([C@H]2N[C@H]2c2ccccc2)cc1
inactive: [2] 96 % of control | [4] 95 % of control | [5] 98 % of control

CCOC(=O)c1cnc(SC)nc1Nc1ccccc1[N+](=O)[O-]
inactive: dose: 25.0 mg/kg/injection, schedule: Q01DX001 (ip), vehicle: Klucel (hydroxypropylcellulose) (HPC) 96 % of control | dose: 50.0 mg/kg/injection, schedule: Q01DX001 (ip), vehicle: Klucel (hydroxypropylcellulose) (HPC) 96 % of control | dose: 100.0 mg/kg/injection, schedule: Q01DX001 (ip), vehicle: Klucel (hydroxypropylcellulose) (HPC) 100 % of control | [1] 94 % of control | dose: 200.0 mg/kg/injection, schedule: Q01DX001 (ip), vehicle: Klucel (hydroxypropylcellulose) (HPC) 88 % of control | [3] 94 % of control | dose: 400.0 mg/kg/injection, schedule: Q01DX001 (ip), vehicle: Klucel (hydroxypropylcellulose) (HPC) 88 % of control | [7] 89 % of control

OC1C/C=C/CCCCC1 (stereo unspecified)
inactive: dose: 100.0 mg/kg/injection, schedule: Q04DX002 (ip), vehicle: Klucel (hydroxypropylcellulose) (HPC) 106 % of control | dose: 200.0 mg/kg/injection, schedule: Q04DX002 (ip), vehicle: Klucel (hydroxypropylcellulose) (HPC) 100 % of control | dose: 400.0 mg/kg/injection, schedule: Q04DX002 (ip), vehicle: Klucel (hydroxypropylcellulose) (HPC) 103 % of control

C1CNC2CCCC2C1 (stereo unspecified)
inactive: dose: 75.0 mg/kg/injection, schedule: Q01DX001 (ip), vehicle: carboxymethylcellulose (CMC) 103 % of control

CC(=O)N(C)c1ccc(C)cc1C
inactive: [8] 104 % of control | [9] 98 % of control | [10] 93 % of control

Nc1nc(N)c2ncn(C3CC(O)C(CO)O3)c2n1 (stereo unspecified)
inactive: [11] 96 % of control | [6] 110 % of control | [12] 90 % of control | [13] 96 % of control

COc1ccc(CCN(CCO)CCNS(=O)(=O)c2ccc(C)cc2)cc1
inactive: dose: 100.0 mg/kg/injection, schedule: Q01DX001 (ip), vehicle: water 98 % of control | dose: 200.0 mg/kg/injection, schedule: Q01DX001 (ip), vehicle: water 107 % of control | dose: 400.0 mg/kg/injection, schedule: Q01DX001 (ip), vehicle: water 107 % of control

C[n+]1c(/C=C/c2c[nH]c3ccccc23)ccc2ccccc21
inactive: dose: 5.0 mg/kg/injection, schedule: Q01DX001 (ip), vehicle: acetone 101 % of control | dose: 10.0 mg/kg/injection, schedule: Q01DX001 (ip), vehicle: acetone 102 % of control | dose: 20.0 mg/kg/injection, schedule: Q01DX001 (ip), vehicle: acetone 96 % of control | dose: 40.0 mg/kg/injection, schedule: Q01DX001 (ip), vehicle: acetone 107 % of control | dose: 80.0 mg/kg/injection, schedule: Q01DX001 (ip), vehicle: acetone 100 % of control

O=C(NCc1ccc(Cl)c(Cl)c1)Nc1ccccc1Cl
inactive: [1] 97 % of control | [3] 100 % of control | [7] 103 % of control

Nn1c(C(F)(F)F)n[nH]c1=S
inactive: dose: 100.0 mg/kg/injection, schedule: Q04DX003 (ip), vehicle: alcohol 103 % of control | dose: 200.0 mg/kg/injection, schedule: Q04DX003 (ip), vehicle: alcohol 101 % of control | dose: 400.0 mg/kg/injection, schedule: Q04DX003 (ip), vehicle: alcohol 95 % of control

COC(=O)/C(=C\c1cccnc1)NC(=O)c1ccccc1
inactive: [11] 100 % of control | [6] 100 % of control | dose: 100.0 mg/kg/injection, schedule: Q04DX003 (ip), vehicle: saline 97 % of control | [12] 103 % of control | dose: 200.0 mg/kg/injection, schedule: Q04DX003 (ip), vehicle: saline 95 % of control | dose: 400.0 mg/kg/injection, schedule: Q04DX003 (ip), vehicle: saline 97 % of control

CCC(C)C(C=O)(CCN(C)CC)c1cccc2ccccc12 (stereo unspecified)
inactive: dose: 25.0 mg/kg/injection, schedule: Q04DX002 (ip), vehicle: saline with Tween-80 91 % of control | dose: 50.0 mg/kg/injection, schedule: Q04DX002 (ip), vehicle: saline with Tween-80 94 % of control

Nc1cc(=O)[nH]c(O)c1C(=O)O
inactive: [8] 98 % of control and 90 % of control | [9] 97 % of control | [10] 94 % of control

c1cncc(Nc2c3ccccc3nc3ccccc23)c1
inactive: [6] 97 % of control | [12] 99 % of control | [13] 94 % of control

CCc1c(CC(=O)O)c2cc(C)ccc2n1Cc1ccc(Cl)cc1
inactive: dose: 12.5 mg/kg/injection, schedule: Q01DX Z (ip), vehicle: saline 95 % of control and 96 % of control | dose: 24.0 mg/kg/injection, schedule: Q01DX Z (ip), vehicle: carboxymethylcellulose (CMC) 91 % of control | dose: 25.0 mg/kg/injection, schedule: Q01DX Z (ip), vehicle: saline 103 % of control and 100 % of control | dose: 36.0 mg/kg/injection, schedule: Q01DX Z (ip), vehicle: carboxymethylcellulose (CMC) 92 % of control | dose: 50.0 mg/kg/injection, schedule: Q01DX Z (ip), vehicle: saline 113 % of control and 102 % of control | dose: 54.0 mg/kg/injection, schedule: Q01DX Z (ip), vehicle: carboxymethylcellulose (CMC) 95 % of control | dose: 100.0 mg/kg/injection, schedule: Q01DX Z (ip), vehicle: saline 95 % of control and 93 % of control | dose: 162.0 mg/kg/injection, schedule: Q01DX Z (ip), vehicle: carboxymethylcellulose (CMC) 94 % of control | dose: 324.0 mg/kg/injection, schedule: Q01DX Z (ip), vehicle: carboxymethylcellulose (CMC) 88 % of control

OCC#CCO
inactive: dose: 5.0 mg/kg/injection, schedule: Q01DX001 (ip), vehicle: carboxymethylcellulose (CMC) 95 % of control | dose: 10.0 mg/kg/injection, schedule: Q01DX001 (ip), vehicle: carboxymethylcellulose (CMC) 104 % of control | dose: 12.0 mg/kg/injection, schedule: Q04DX003 (ip), vehicle: saline 98 % of control | dose: 20.0 mg/kg/injection, schedule: Q01DX001 (ip), vehicle: carboxymethylcellulose (CMC) 93 % of control | dose: 25.0 mg/kg/injection, schedule: Q04DX003 (ip), vehicle: saline 104 % of control | dose: 40.0 mg/kg/injection, schedule: Q01DX001 (ip), vehicle: carboxymethylcellulose (CMC) 106 % of control | dose: 50.0 mg/kg/injection, schedule: Q01DX009 (ip), vehicle: other 105 % of control | dose: 50.0 mg/kg/injection, schedule: Q04DX003 (ip), vehicle: saline 95 % of control | dose: 80.0 mg/kg/injection, schedule: Q01DX001 (ip), vehicle: carboxymethylcellulose (CMC) 95 % of control

C/C(=N\NC(=O)c1ccc([N+](=O)[O-])cc1)c1ccccc1
inactive: dose: 100.0 mg/kg/injection, schedule: Q01DX001 (ip), vehicle: carboxymethylcellulose (CMC) 87 % of control | dose: 200.0 mg/kg/injection, schedule: Q01DX001 (ip), vehicle: carboxymethylcellulose (CMC) 87 % of control
